Measured values from patent EP0498705A1, “Phenol ethers derivatives, their preparation and their therapeutical use” (SYNTHELABO, priority 1991, dated 1992).

Legend:
Rat amyélé = assay: Partial β-agonist activity in vivo: heart rate increase in the pithed rat after cumulative i.v. doses; details: for ED (50 beats per minute increase): iv, dose giving a heart rate increase of 50 beats per minute, pithed rat, i.v., read-out: DE₅₀; for augmentation maximale de fréquence cardiaque (effet agoniste partiel): pithed anaesthetised rat, cumulative i.v. doses
Procedure: 2. Propriétés β-agonistes partielles des isomères (S)(-) et (R)(+) du cicloprolol.
L'activité β-agoniste partielle des deux énantiomères du cicloprolol, a été étudiée in vivo chez le Rat amyélé. Des rats (Spraque-Dawley; Charles River, France) mâles de 250 g environ sont anesthésiés au pentobarbital sodique (55 mg/kg i.p.), amyélés puis placés sous respiration artificielle. La pression artérielle est captée par voie sanglante au niveau de la carotide et l'onde pulsatile alimente un tachographe gui permet de mesurer la fréquence cardiaque. Les composés sont injectés par voie intraveineuse au niveau de la veine fémorale. Ces rats amyélés présentent une fréquence cardiaque réduite d'environ 30 % par rapport à celle de rats intacts anesthésiés. L'activité agoniste partielle des énantiomères est déterminée par l'injection de doses cumulatives des énantiomères. On détermine la dose permettant une augmentation de la fréquence cardiaque de 50 battements par minute (DE₅₀) ainsi que le maximum de l'effet.

[1] = Cardiac stimulant activity in man; assay type: in vivo, homme; details: no method or data given
[2] = biological target: T1, récepteurs β₁ adrénergiques (Cavia porcellus, UniProt H0W3H1); assay: Blockade of β1 adrenergic receptors in vitro: isoprenaline concentration-effect curves on atrial rate of isolated right atria (Schild analysis); assay type: cell-based, cobaye; details: for déplacement des courbes concentration-effet à l'isoprénaline: R(+) at 0,3, 1, 3 µM, S(-) at 0,1, 0,3, 1 µM, 30 min before the second curve; for Kb: Schild method, antagonism of isoprenaline on atrial rate, isolated guinea pig right atrium, 32°C, confidence interval in brackets, read-out: pA₂ (converted)
T1 construct: L'oreillette droite est séparée du coeur; from tissue; host or cells: isolated right atrium of male guinea pigs
Excerpt: 1. Efficacité des isomères (S)(-) et (R)(+) du cicloprolol en tant que bloquants des récepteurs β₁ adrénergiques dans des conditions in vitro.
Préparation des oreillettes droites.
Des cobayes mâles (race tricolore : élevage LESSIEUX) pesant 200-250 g sont sacrifiés par dislocation cervicale. Les coeurs sont rapidement retirés de la cage thoracique et placés dans une solution de Krebs dans laquelle barbote un mélange de 95 % de O₂ et 5 % de CO₂. La composition de cette solution en mM est : NaCl 118; KCl 4,7; CaCl₂ 2,6; KH₂PO₄ 1,2; MgCl₂ 1,2; NaHCO₃ 25; glucose 11,7; acide ascorbique 1,0. L'oreillette droite est séparée du coeur. Sa base est attachée à un crochet monté sur un support et son apex à un autre petit crochet auquel un fil est accroché. La préparation est transférée dans un bain à organe contenant 20 ml de solution de Krebs oxygénée à 32°C et le fil est connecté à un transducteur de force (Grass, modèle : FTO3C). Une tension de repos de 0,5 g est appliquée à l'oreillette et les signaux de force contractile servent à déclencher un cardiotachomètre pour mesurer le rythme atrial. La force contractile et le rythme atrial sont enregistrés sur un polygraphe.
Après une période de stabilisation de 50 minutes, le tissu est soumis à une concentration de 0,01 µM d'isoprénaline puis est lavé à plusieurs reprises pendant 20 minutes. Immédiatement après, la courbe concentration-effet complète est déterminée en additionnant au bain des concentrations de plus en plus fortes d'isoprénaline (demi-intervalles de l'échelle logarithmique) jusqu'à ce que le rythme atrial ne puisse plus augmenter davantage. Chaque concentration successive d'isoprénaline est ajoutée quand la réponse à la concentration précédente atteint un état stable apparent. A la fin de cette courbe concentration-effet, la préparation est lavée toutes les 10 minutes, pendant 30 minutes, pour lui laisser retrouver son rythme de battement minimal. Puis, une deuxième courbe de réponse aux concentrations est effectuée 30 minutes après avoir soumis la préparation aux différentes concentrations de R(+)-cicloprolol (0,3; 1; et 3 µM) ou de S(-)-cicloprolol (0,1; 0,3 et 1 µM). Les modifications maximales du rythme atrial engendrées par chaque concentration d'isoprénaline sont exprimées en pourcentage par rapport à la réponse émise lors d'une concentration supramaximale d'isoprénaline. Ces valeurs sont utilisées pour construire la courbe concentration-effet dans un repère semi-logarithmique. Il faut noter que si le rythme initial au début de la seconde courbe concentration-effet diffère de celle de la 1ère courbe, la réponse maximale utilisée pour calculer les pourcentages est déterminée par la différence entre le rythme initial de l'oreillette avant l'initiation de la seconde courbe concentration-effet et le rythme atteint par l'oreillette après l'addition de la plus grande concentration d'isoprénaline lors de la première courbe de réponse.
Le logarithme changé de signe de la concentration d'isoprénaline produisant 50 % de l'effet maximal (pD₂) est calculé pour chaque courbe de réponse avant et après chaque concentration de S(-) ou de R(+)-cicloprolol. Les valeurs logarithmiques (concentration ratio-1) sont portées sur l'ordonnée en fonction du logarithme négatif de la concentration d'antagoniste. (Arunlakshana et Schild, Br. J. Pharmacol. 14, 48-54, 1959). […]

T1 sequence (H0W3H1 1-470): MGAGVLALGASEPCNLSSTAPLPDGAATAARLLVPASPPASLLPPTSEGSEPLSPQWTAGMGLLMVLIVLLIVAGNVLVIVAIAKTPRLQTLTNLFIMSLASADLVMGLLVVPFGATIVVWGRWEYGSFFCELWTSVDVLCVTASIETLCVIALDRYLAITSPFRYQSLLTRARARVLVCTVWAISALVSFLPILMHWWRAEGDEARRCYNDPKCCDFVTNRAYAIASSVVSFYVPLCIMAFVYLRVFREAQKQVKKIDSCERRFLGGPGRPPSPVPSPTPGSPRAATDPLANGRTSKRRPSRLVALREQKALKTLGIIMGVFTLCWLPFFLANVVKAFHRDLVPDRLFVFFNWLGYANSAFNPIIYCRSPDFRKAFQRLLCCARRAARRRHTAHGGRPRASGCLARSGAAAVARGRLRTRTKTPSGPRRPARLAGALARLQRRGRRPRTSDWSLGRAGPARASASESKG

| Kb [2] [nM] | fois plus puissant que le (R)(+)-cicloprolol, comme antagoniste des récepteurs β₁ adrénergiques ([2]; antilog(7,44 - 6,62), ratio of the pA₂ values) | Structure (SMILES) | ED (50 beats per minute increase) (Rat amyélé) [µg/kg] | augmentation maximale de fréquence cardiaque (effet agoniste partiel) (Rat amyélé) [bat/min] | activité stimulante cardiaque [1] | déplacement des courbes concentration-effet à l'isoprénaline [2] |
| --- | --- | --- | --- | --- | --- | --- |
|  |  | CC(C)NCC(O)c1ccc(O)c(O)c1 (stereo not drawn) [isoprénaline, reference compound] | 0.02 | ~140 |  |  |
|  |  | CC(C)NCC(O)COc1ccc(OCCOCC2CC2)cc1 (stereo not drawn) [cicloprolol, 1-[4-[2-(cyclopropylméthoxy)éthoxy]phénoxy]-3-[(1-méthyléthyl)amino]propan-2-ol] |  |  | a été confirmée chez l'homme |  |
| 36.3 | 6,6 fois | CC(C)NC[C@H](O)COc1ccc(OCCOCC2CC2)cc1 [(S)(-)-cicloprolol, (S)-(-)-1-[4-[2-(cyclopropylméthoxy)éthoxy]phénoxy]-3-[(1-méthyléthyl)amino]propan-2-ol] | 4.6 ± 0.1 | 107 ± 3 |  | déplacent vers la droite les courbes concentration-effet à l'isoprénaline de façon parallèle et sans changer la réponse maximale |
| 240 |  | CC(C)NC[C@@H](O)COc1ccc(OCCOCC2CC2)cc1 [(R)(+)-cicloprolol, (R)-(+)-1-[4-[2(cyclopropylméthoxy)éthoxy]phénoxy]-3-[(1-méthyléthyl)amino]propan-2-ol] | 122 ± 2 | 113 ± 5 |  | déplacent vers la droite les courbes concentration-effet à l'isoprénaline de façon parallèle et sans changer la réponse maximale |
